Measured values from PMC3705412, “PTP1B Inhibitory and Anti-Inflammatory Effects of Secondary Metabolites Isolated from the Marine-Derived Fungus Penicillium sp. JF-55” (Marine Drugs, 2013).

Legend:
Format in all cases: cell-based, murine (C57BL/6 mice)
COX-2 = test: Western blotting of COX-2 protein expression in LPS-stimulated macrophages; conditions: pre-treatment 12 h, LPS 1 μg/mL 18 h
Description: Figure 3 The effects of penstyrylpyrone (1) (A), anhydrofulvic acid (2) (B), and citromycetin (3) (C) on the protein expression of iNOS and COX-2 in murine peritoneal macrophages stimulated with LPS. Murine peritoneal macrophages were pre-treated for 12 h at the indicated compound concentrations and stimulated for 18 h with LPS (1 μg/mL). Western blotting analysis was performed, and the representative blots of three independent experiments are shown.
C57BL/6 mice were purchased from Orient Bio Co. (Sungnam, Kyung-Kido, Korea). TG-elicited peritoneal macrophages were harvested four days after intraperitoneal (i.p.) injection of 3 mL of TG [37]. Peritoneal lavage was performed using 8 mL of Hanks’ Balanced Salt Solution containing 10 U/mL heparin. The cells were distributed in Roswell Park Memorial Institute medium (RPMI) supplemented with 10% heat-inactivated FBS, in 6-well tissue culture plates (5 × 10^6 cells/mL).
(§1) Western blotting analysis was performed by lysing the cells in 20 mM Tris-HCl buffer (pH 7.4) containing a protease inhibitor mixture (0.1 mM PMSF, 5 mg/mL aprotinin, 5 mg/mL pepstatin A, and 1 mg/mL chymostatin). The protein concentration was determined using a Lowry protein assay kit (P5626; Sigma Chemical Co., St. Louis, MO, USA). […]

[1] = test system: murine peritoneal macrophages; test: Cell viability assay (MTT); set-up: dose or concentration left out as unconfirmed
[2] = test system: COX-2-derived PGE2 production in murine peritoneal macrophages; test: PGE2 production in LPS-stimulated macrophages, ELISA; conditions: Mus musculus, Peritoneal macrophage; pre-treated 12 h, LPS 1 μg/mL 18 h
Description: C57BL/6 mice were purchased from Orient Bio Co. (Sungnam, Kyung-Kido, Korea). TG-elicited peritoneal macrophages were harvested four days after intraperitoneal (i.p.) injection of 3 mL of TG [37]. Peritoneal lavage was performed using 8 mL of Hanks’ Balanced Salt Solution containing 10 U/mL heparin. The cells were distributed in Roswell Park Memorial Institute medium (RPMI) supplemented with 10% heat-inactivated FBS, in 6-well tissue culture plates (5 × 10^6 cells/mL). The level of PGE2, TNF-α or IL-1β present in each sample was determined using a commercially available kit from R & D Systems. The assay was performed according to the manufacturer’s instructions. Briefly, murine peritoneal macrophages were cultured in 24-well plates, pre-incubated for 12 h with different concentrations of compounds 1–3, and then stimulated for 18 h with LPS. The cell culture supernatants were then immediately collected after treatment and centrifuged at 13,000× g for 2 min to remove particulate matter. The medium was added to a 96-well plate pre-coated with affinity-purified PGE2-specific polyclonal antibodies or the medium was added to a 96-well plate pre-coated with affinity-purified polyclonal antibodies that were specific to mouse TNF-α or IL-1β. An enzyme-linked polyclonal antibody specific for PGE2, mouse TNF-α or IL-1β was added to the wells for 20 h, followed by a final wash to remove any unbound antibody-enzyme reagent. A substrate solution was added, and the intensity of the color produced, which was measured at 450 nm (the correction wavelength was set at 540 nm or 570 nm), was proportional to the amount of PGE2, TNF-α or IL-1β present.

Nrf2 = test: Western blotting of Nrf2 nuclear translocation in macrophages; conditions: 40 μM; 15, 30, 60, 90 and 120 min
Description: Figure 7 The effects of penstyrylpyrone (1) on the nuclear translocation of Nrf2 (A) and anti-oxidant response element (ARE) activation (B) in murine peritoneal macrophages. Murine peritoneal macrophages were treated with 40 μM of penstyrylpyrone (1) for 15, 30, 60, 90 and 120 min. The nuclei were fractionated from the cytosol using PER-Mammalian Protein Extraction buffer. Nrf2 protein was detected using Western blotting analysis and representative blots of three independent experiments are shown. Quiescent cells transiently transfected with ARE-luciferase or control vector were incubated for 1 h with indicated concentrations of latifolin in the presence of 5% FBS. […]
Murine peritoneal macrophages were homogenized (1:20, w:v) in PER-Mammalian Protein Extraction buffer (Pierce Biotechnology, Rockford, IL, USA) containing freshly added protease inhibitor cocktail I (EMD Biosciences, San Diego, CA, USA) and 1 mM phenylmethylsulfonyl fluoride (PMSF). […] The protein concentration was determined using the bicinchoninic acid (BCA) protein assay kit.
as §1

IC50 [2]: 9.35 µM
Structure (SMILES): COc1cc(/C=C/c2ccccc2)oc(=O)c1C [Penstyrylpyrone (1), penstyrylpyrone]
COX-2 expression (COX-2): decreased | Cytotoxicity (cell viability) [1]: non-cytotoxic | Nrf2 levels in nuclear fractions (Nrf2): gradual increase in Nrf2 levels
